# Source: article PMC9374667 (Communications Biology, 2022)
# Several values for one entry are separate records, joined by “and”; a condition that tells them apart may be missing. Identical values can stand only once.
# Experiments:
# [1] = In vitro dissolution studies: dynamic solubility in buffers and simulated biological fluids; type: physicochemical; parameters: BBR dissolved in CMC-Na (Figure S7a) / Ibu dissolved in CMC-Na (Figure S7b): unit not given here; settings: mean; for solubility at 0.5 h / solubility at 1 h / solubility at 2 h / solubility at 24 h: 37 °C
# Procedure: (§1) Solubilities were determined by adding excess sample to 30 mL different mediums, such as HCl solution, acetate buffer, phosphate buffer, SGF, FaSSIF and FeSSIF. The configuration of various buffer solutions is shown in Supplementary Table 2. After being shaken at 400 rpm at 37 °C for 0.5, 1, 2, and 24 h, 0.3 mL of suspension was sampled and centrifuged at 14,000 rpm for 8 min to isolate mother liquor, and then analyzed by HPLC after dilution. All samples were analyzed in triplicate.
# db/db mice [2] = assay: Glucose tolerance test (GTT); type: in vivo; parameters: blood glucose level / blood glucose AUC: unit not given here; settings: BBR 150mg/kg; for blood glucose level, mean: mean of 10 mice
# db/db mice [3] = assay: Fat depots weight (BAT, iWAT, eWAT; percentage of body weight); type: in vivo; parameters: key to BAT fat depot weight (Figure 4c): % of body weight (fat depot weight / body weight * 100%); settings: db/db mice
# Procedure: The lean wild type control and the db/db control mice were given equal vehicle volume (0.5% CMC-Na solution). All mice were monitored for food intake, body weight, and fasting blood glucose during the 35-day trial. Glucose tolerance test (GTT) and insulin resistance test (ITT) were performed at 4 and 5 weeks of treatment, respectively. Metabolic analysis was performed at 5 weeks of treatment. At the end of the study, blood samples were taken through the retroorbital venous sinus of mice, fat depots (brown fat, inguinal subcutaneous fat, epididymal fat, perirenal fat and mesenteric fat depot) were dissected, weighed, and immediately frozen in liquid nitrogen and stored at −80 °C until required. Weight of fat depots are expressed in percentage (fat depots weight /bodyweight * 100%).
# [4] = pH of the solution after 24 hours of the dissolution test; type: physicochemical
# Procedure: as §1, with “triplicate. […]” for “triplicate.”
# into a 1000 mL flask followed by addition of about 800 mL of deionized water. The mixture is stirred until all solids are dissolved.
# Add about 100 mL of 0.1 N HCl, check pH value with a pH meter and adjust the pH to 2.0 with HCl (1 N) or NaOH (1 N). Then dilute to the volume with deionized water.
# * 1N sodium hydroxide: Weigh 8 g NaOH in a 200 mL plastic volumetric flask, add deionized water to volume and mix well. […]
# phosphate and 3.093 g sodium chloride in a 500 mL volumetric flask, add about 0.450 L deionized water, and adjust the pH to 6.5 with 1N sodium hydroxide or 1 N hydrochloric acid. Make up to volume (0.5 […]
# Step 2: Place and dissolve 1.120 g FaSSIF/FeSSIF/FaSSGF instant powder with 0.250 L of buffer (from step 1) in a 500 mL volumetric flask, then add buffer (from step 1) to volume, and mix well. […]
# g sodium chloride in a 500 mL volumetric flask, add about 0.450 L deionized water, and adjust the pH to 5.0 with 1 N sodium hydroxide or 1 N hydrochloric acid. Make up to volume (500 mL) with
# Step 2: Place and dissolve 5.600 g FaSSIF/FeSSIF/FaSSGF instant […]
# 0.750 L deionized water. Make up to volume (1000 mL) with deionized water and placed overnight.
# (1 picture or pasted object on this page, not shown here)
# db/db mice [5] = assay: HE staining of epididymal adipose tissue, adipocyte size; type: in vivo
# Procedure: The adipose tissue was fixed overnight in 4% paraformaldehyde, then embedded in paraffin and cut into 5 µm thick slices. Tissue sections were stained with hematoxylin and eosin (H&E). For immunohistochemistry, sections were incubated with primary antibodies against F4/80 (1:100 dilution) diluted in the blocking solution at 4 °C overnight. The tissue sections were then incubated with the horseradish peroxidase (HRP)-conjugated secondary antibody at room temperature for 2 h. Finally, the sections were developed with diaminobenzidine (DAB) and counterstained with hematoxylin. Images were obtained under a microscope. To quantify the F4/80-positive macrophages, two random fields per sample were analyzed by Image J software. The IHC profiler plugin of ImageJ was used to calculate the F4/80 positive area.
# db/db mice [6] = assay: Insulin tolerance test (ITT), AUC and initial slope; type: in vivo; parameters: blood glucose AUC: unit not given here; settings: BBR 150mg/kg; for blood glucose level: in mmol/L (unit assumed)
# Procedure: Mice were fasted for 4 h for insulin resistance test and intraperitoneally injected with 1 unit/kg of insulin. Blood glucose levels were measured from the tail vein blood at 0, 15, 30, 45, 60, 90, and 120 min after injection. Plasma insulin levels were measured using an ultrasensitive mouse insulin ELISA kit (Nanjing Jiancheng Bioengineering Institute, Nanjing, China).
# [7] = FaSSIF-V1 (fasted state simulated intestinal fluid), thermodynamic from solid, FaSSIF-V1 (pH 6.5)
# [8] = FaSSIF-V1 (fasted state simulated intestinal fluid), FaSSIF-V1 (pH 6.5)
# [9] = FeSSIF-V1 (fed state simulated intestinal fluid), thermodynamic from solid, FeSSIF-V1 (pH 5.0)
# [10] = SGF (simulated gastric fluid), simulated gastric fluid, thermodynamic from solid, SGF (pH 2.0)
# [11] = simulated gastric fluid, thermodynamic from solid, HCl solution (pH 1.0)
# [12] = individual mice, time column 1 of 7 (time not printed)
# [13] = individual mice, time column 2 of 7 (time not given)
# [14] = individual mice, time column 3 of 7 (time not given)
# [15] = individual mice, time column 4 of 7 (time not given)
# [16] = individual mice, time column 5 of 7 (time not given)
# [17] = individual mice, time column 6 of 7 (time not given)
# [18] = individual mice, time column 7 of 7 (time not printed)
# [19] = BBR 150mg/kg, individual mice 1-10, in %
# [20] = BJ 75 and 150 mg/kg, BBR 150 mg/kg, Ibu 150 mg/kg
compound,measurement,setting,value
"COc1ccc2cc3[n+](cc2c1OC)CCc1cc2c(cc1-3)OCO2 [BBR, Berberine chloride dihydrate]",solubility at 0.5 h,[1]; Acetate buffer (pH 4.5),2080 µg/mL
same,solubility at 1 h,[1]; Acetate buffer (pH 4.5),2070 µg/mL
same,solubility at 2 h,[1]; Acetate buffer (pH 4.5),1540 µg/mL
same,solubility at 24 h,[1]; Acetate buffer (pH 4.5),1540 µg/mL
same,BBR dissolved in CMC-Na (Figure S7a),[1]; time 0.5,1.991
same,BBR dissolved in CMC-Na (Figure S7a),[1]; time 1,2.188
same,BBR dissolved in CMC-Na (Figure S7a),[1]; time 2,2.102
same,BBR dissolved in CMC-Na (Figure S7a),[1]; time 24,2.4551
same,solubility at 0.5 h,[1]; [7],151 µg/mL
same,solubility at 24 h,[1]; [7],64.1 µg/mL
same,solubility at 1 h,[1]; [8],126 µg/mL
same,solubility at 2 h,[1]; [8],87.2 µg/mL
same,solubility at 0.5 h,[1]; [9],137 µg/mL
same,solubility at 2 h,[1]; [9],73.3 µg/mL
same,solubility at 24 h,[1]; [9],63.1 µg/mL
same,solubility at 1 h,"[1]; FeSSIF-V1 (fed state simulated intestinal fluid), FeSSIF-V1 (pH 5.0)",107 µg/mL
same,solubility at 2 h,[1]; HCl solution (pH 1.0),106 µg/mL
same,solubility at 24 h,[1]; HCl solution (pH 1.0),81.1 µg/mL
same,solubility at 0.5 h,[1]; Phosphate buffer (pH 6.8),2290 µg/mL
same,solubility at 1 h,[1]; Phosphate buffer (pH 6.8),2380 µg/mL
same,solubility at 2 h,[1]; Phosphate buffer (pH 6.8),1790 µg/mL
same,solubility at 24 h,[1]; Phosphate buffer (pH 6.8),1950 µg/mL
same,solubility at 0.5 h,[1]; [10],172 µg/mL
same,solubility at 1 h,[1]; [10],175 µg/mL
same,solubility at 2 h,[1]; [10],140 µg/mL
same,solubility at 24 h,"[1]; SGF (simulated gastric fluid), SGF (pH 2.0)",110 µg/mL
same,solubility at 0.5 h,[1]; [11],137 µg/mL
same,solubility at 1 h,[1]; [11],146 µg/mL
same,blood glucose level,db/db mice [2]; [12],16.4 and 13.5 and 14.2 and 17.7 and 15.0 and 13.4 and 16.8
same,blood glucose level,db/db mice [2]; [13],28.7 and 28.8 and 32.6 and 33.3
same,blood glucose level,db/db mice [2]; [14],31.2 and 22.4 and 33.3 and 29.2
same,blood glucose level,db/db mice [2]; [15],27.9 and 29.2 and 23.4 and 32.4 and 30.4
same,blood glucose level,db/db mice [2]; [16],28.4 and 22.4 and 33.3 and 28.6
same,blood glucose level,db/db mice [2]; [17],23.4 and 21.0 and 20.5
same,blood glucose level,db/db mice [2]; [18],17.7 and 16.7 and 22.7 and 19.6 and 20.9
same,"blood glucose level, mean",db/db mice [2]; time column 1 of 7 (time not printed),15 mmol/L
same,"blood glucose level, mean",db/db mice [2]; time column 2 of 7 (time not given),30.7 mmol/L
same,"blood glucose level, mean",db/db mice [2]; time column 3 of 7 (time not given),28.4 mmol/L
same,"blood glucose level, mean",db/db mice [2]; time column 4 of 7 (time not given),27.7 mmol/L
same,"blood glucose level, mean",db/db mice [2]; time column 6 of 7 (time not given),22.6 mmol/L
same,"blood glucose level, mean",db/db mice [2]; time column 7 of 7 (time not printed),20.1 mmol/L
same,blood glucose AUC,"db/db mice [2]; Figure 5d, individual mice",3443.25 and 3088.5 and 2416.5 and 3051.75 and 2479.5 and 3425.25 and 2977.5 and 2793.75 and 3132 and 3001.5
same,BAT fat depot weight (Figure 4c),"db/db mice [3]; BBR 150mg/kg, individual mice 1-10",2.4015 and 0.6109 and 1.4913 and 1.4054 and 1.8804 and 2.4038 and 1.1343 and 1.618 and 1.1772 and 2.0775
same,eWAT fat depot weight (Figure 4c),db/db mice [3]; [19],2.6561 and 3.1311 and 2.7778 and 2.6199 and 2.8014 and 3.2406 and 2.7924 and 3.779 and 2.6477 and 2.5027
same,iWAT fat depot weight (Figure 4c),db/db mice [3]; [19],3.5734 and 2.9857 and 2.7524 and 3.658 and 3.8567 and 3.8981 and 3.3728 and 3.0795 and 1.8382 and 2.8305
same,Fat depots weight / body weight,"db/db mice [3]; 150 mg/kg for 35 days, individual mice, 150 mg/kg",19.7808% and 22.3551% and 14.9978% and 19.6619% and 20.7394% and 16.7296% and 16.0902% and 17.3833% and 23.2726% and 23.7021%
same,Fat depots weight compared with vehicle,db/db mice [3]; [20],lower fat depots weight than vehicle-treated db/db mice
same,pH of the solution after 24 hours,"[4]; Acetate buffer, blank vehicle 4.54",4.57
same,pH of the solution after 24 hours,"[4]; CMC-Na, blank vehicle 6.51",6.20
same,pH of the solution after 24 hours,"[4]; FaSSIF-v1, blank vehicle 6.51",6.54
same,pH of the solution after 24 hours,"[4]; FeSSIF-v1, blank vehicle 5.04",5.03
same,pH of the solution after 24 hours,"[4]; HCl solution, blank vehicle 1.08",1.05
same,pH of the solution after 24 hours,"[4]; Phosphate buffer, blank vehicle 6.84",6.90
same,pH of the solution after 24 hours,"[4]; SGF, blank vehicle 2.03",2.07
same,Cell diameter (adipocyte size of eWAT),"db/db mice [5]; 150 mg/kg, individual cells",112.956 µm and 111.168 µm and 109.684 µm and 107.318 µm and 103.404 µm and 102.799 µm and 102.56 µm and 100.649 µm and 97.9486 µm and 97.2359 µm and 94.5814 µm and 93.4958 µm and 92.5409 µm and 90.4031 µm and 87.905 µm and 126.009 µm and 123.446 µm and 119.401 µm and 113.9 µm and 113.401 µm
same,Size of adipocytes in eWAT compared with vehicle,db/db mice [5]; [20],significantly reduced
same,blood glucose level,db/db mice [6]; [12],19.2 and 16.4 and 9.2 and 15.3 and 9.5 and 19.6 and 19.0 and 21.8 and 10.2
same,blood glucose level,db/db mice [6]; [13],18.1 and 16.0 and 9.1 and 15.7 and 11.1 and 18.6 and 18.3 and 22.5 and 13.5
same,blood glucose level,db/db mice [6]; [14],14.4 and 12.6 and 7.4 and 12.2 and 7.9 and 18.7 and 13.6 and 19.0 and 15.5 and 10.0
same,blood glucose level,db/db mice [6]; [15],12.3 and 9.3 and 4.0 and 8.5 and 6.8 and 15.1 and 11.8 and 17.7 and 13.7 and 6.9
same,blood glucose level,db/db mice [6]; [16],10.3 and 9.1 and 4.5 and 8.8 and 7.2 and 13.0 and 10.2 and 17.4 and 10.8 and 7.5
same,blood glucose level,db/db mice [6]; [17],11.7 and 9.8 and 3.9 and 8.9 and 7.6 and 15.8 and 11.2 and 20.0 and 12.2 and 8.2
same,blood glucose level,db/db mice [6]; [18],11.0 and 10.0 and 4.1 and 9.3 and 6.7 and 17.4 and 10.3 and 19.0 and 11.5 and 7.3
same,blood glucose AUC,"db/db mice [6]; Figure 5f, individual mice",948.75 and 1960.5 and 1518 and 2328 and 1638 and 1056.75 and 1563.75 and 1340.25 and 656.25 and 1265.25
same,Initial Slope,"db/db mice [6]; db/db mice, individual animals (Figure S10a)",-0.0533 mmol/L/min and -0.03 mmol/L/min and -0.18 mmol/L/min and -0.0933 mmol/L/min and -0.1367 mmol/L/min and -0.0067 mmol/L/min and -0.16 mmol/L/min and -0.1267 mmol/L/min and -0.06 mmol/L/min and -0.1033 mmol/L/min
